One may read the IC50 as the point on the concentration scale where inhibition reaches its midpoint.

Holding throughout (type): cell-based
In one assay the target is T1, KDM2A (Homo sapiens, UniProt Q9Y2K7).
T1 construct: Full length; host or cells: U2OS
T1 sequence (Q9Y2K7 1-1162): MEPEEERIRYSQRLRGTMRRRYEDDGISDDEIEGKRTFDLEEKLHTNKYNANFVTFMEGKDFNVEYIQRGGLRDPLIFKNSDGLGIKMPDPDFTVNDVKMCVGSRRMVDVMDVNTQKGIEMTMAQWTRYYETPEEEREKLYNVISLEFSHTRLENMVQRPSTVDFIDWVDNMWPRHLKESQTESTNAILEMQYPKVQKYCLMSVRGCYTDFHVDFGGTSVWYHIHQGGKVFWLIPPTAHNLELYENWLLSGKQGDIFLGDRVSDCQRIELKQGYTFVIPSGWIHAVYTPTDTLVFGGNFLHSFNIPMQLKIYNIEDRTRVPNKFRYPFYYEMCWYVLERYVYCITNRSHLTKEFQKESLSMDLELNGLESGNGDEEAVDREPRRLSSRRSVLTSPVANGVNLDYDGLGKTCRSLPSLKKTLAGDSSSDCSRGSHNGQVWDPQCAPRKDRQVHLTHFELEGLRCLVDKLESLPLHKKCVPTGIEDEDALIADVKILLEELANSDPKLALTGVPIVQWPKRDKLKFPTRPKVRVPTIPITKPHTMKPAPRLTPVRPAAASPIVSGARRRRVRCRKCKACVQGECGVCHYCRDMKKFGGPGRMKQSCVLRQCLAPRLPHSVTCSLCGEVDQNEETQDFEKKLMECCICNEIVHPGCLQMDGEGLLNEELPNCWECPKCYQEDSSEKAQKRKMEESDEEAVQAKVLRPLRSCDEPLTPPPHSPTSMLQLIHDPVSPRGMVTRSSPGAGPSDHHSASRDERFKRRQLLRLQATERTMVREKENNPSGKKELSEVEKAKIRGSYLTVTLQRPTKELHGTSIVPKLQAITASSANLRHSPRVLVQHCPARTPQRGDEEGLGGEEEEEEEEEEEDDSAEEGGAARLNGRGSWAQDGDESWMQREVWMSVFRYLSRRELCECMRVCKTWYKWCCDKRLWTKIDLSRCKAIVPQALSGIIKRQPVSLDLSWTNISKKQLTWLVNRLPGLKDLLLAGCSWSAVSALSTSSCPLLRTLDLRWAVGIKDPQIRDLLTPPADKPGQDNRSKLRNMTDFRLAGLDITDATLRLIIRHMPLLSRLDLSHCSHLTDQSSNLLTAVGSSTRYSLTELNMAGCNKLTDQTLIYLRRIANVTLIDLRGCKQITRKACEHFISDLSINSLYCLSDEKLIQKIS
Put plainly: Histone lysine demethylase immunofluorescence assay, U2OS cells transfected with KDM2A. The following applies: U2OS cells transfected with pCMVHA KDM2A; mark detected H3K36me2; 20 hours. As to the method: (§1) U2OS cells were seeded 24 hours before transfection. Transfection was performed with Fugene HD transfection reagent as recommended by the manufacturer. 6 hours after transfection, the cells were harvested and seeded into multi well plates into media containing compound. The media used was DMEM containing 10% FBS and pen/strep. 20 hours after incubation of cells with compounds, the cells were washed in PBS, harvested by fixation with formaldehyde 4% aqueous solution, and washed in PBS. Subsequently, the cells were permeabilized in PBS with 0.2% Triton X-100 for. Blocking was performed in PBS with 0.2% Triton X-100 and 5% FBS. The cells were incubated with primary antibodies in blocking solution over night at 4° C. The primary antibodies used in the assays were HA.11 (Covance, MMS-101P) and the antibody detecting the mark specified in the table below. After incubation with primary antibodies, the cells were washed with PBS, incubated with secondary antibodies (Alexa fluor 594 goat anti rabbit IgG, Invitrogen, A11012; Alexa flour 488 donkey anti mouse IgG, Invitrogen, A21202) and Hoechst, (Sigma, 33342) in blocking solution, and washed again with PBS. Finally, PBS was added and high throughput imaging and analysis were performed by an IN Cell Analyzer 1000 (GE Healthcare). The robot software analyzed individual cells and divided these into HA+ (transfected cells) and HA− (non-transfected cells). The IC50 values were based on an average measure of the staining of the mark specified in the table below in the transfected cells.

A further assay deals with T2, KDM4A (Homo sapiens, UniProt O75164).
T2 construct: Full length; host or cells: U2OS
T2 sequence (O75164 1-1064): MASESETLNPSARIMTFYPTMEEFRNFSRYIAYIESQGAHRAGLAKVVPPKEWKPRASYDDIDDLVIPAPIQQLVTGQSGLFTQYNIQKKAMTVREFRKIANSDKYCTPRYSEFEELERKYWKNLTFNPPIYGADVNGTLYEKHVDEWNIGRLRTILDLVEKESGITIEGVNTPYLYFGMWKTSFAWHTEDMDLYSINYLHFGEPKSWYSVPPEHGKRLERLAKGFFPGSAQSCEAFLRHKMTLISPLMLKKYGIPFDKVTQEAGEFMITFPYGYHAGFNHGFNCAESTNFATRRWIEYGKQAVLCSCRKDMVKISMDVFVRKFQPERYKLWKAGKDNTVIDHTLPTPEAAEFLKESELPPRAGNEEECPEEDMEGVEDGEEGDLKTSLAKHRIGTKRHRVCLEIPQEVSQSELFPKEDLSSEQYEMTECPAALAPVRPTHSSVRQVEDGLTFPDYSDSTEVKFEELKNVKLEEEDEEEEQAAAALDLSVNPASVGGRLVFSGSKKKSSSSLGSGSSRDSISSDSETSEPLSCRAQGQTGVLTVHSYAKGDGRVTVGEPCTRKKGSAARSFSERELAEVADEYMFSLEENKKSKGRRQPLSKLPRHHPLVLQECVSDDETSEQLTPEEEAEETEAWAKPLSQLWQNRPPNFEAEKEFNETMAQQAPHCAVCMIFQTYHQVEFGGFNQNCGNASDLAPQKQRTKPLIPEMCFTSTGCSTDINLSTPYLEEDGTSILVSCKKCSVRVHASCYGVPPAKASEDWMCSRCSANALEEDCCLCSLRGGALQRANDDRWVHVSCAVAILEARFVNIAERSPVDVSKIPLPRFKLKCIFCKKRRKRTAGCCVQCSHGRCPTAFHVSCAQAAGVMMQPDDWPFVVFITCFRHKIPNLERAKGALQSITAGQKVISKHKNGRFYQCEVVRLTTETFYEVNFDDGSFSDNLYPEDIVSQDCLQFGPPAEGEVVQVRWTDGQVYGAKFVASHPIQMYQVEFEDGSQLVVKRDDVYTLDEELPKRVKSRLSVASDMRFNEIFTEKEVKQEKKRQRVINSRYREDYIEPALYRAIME
Put plainly: Histone lysine demethylase immunofluorescence assay, U2OS cells transfected with KDM4A. Particulars: U2OS cells transfected with pCMVHA KDM4A; mark detected H3K9me3; 20 hours. As to the method:
as §1

The target in a further assay is T3, KDM6B (Homo sapiens, UniProt O15054).
T3 construct: (a.a. 1026-1682); host or cells: U2OS
T3 sequence (O15054 1026-1682 isoform O15054-1): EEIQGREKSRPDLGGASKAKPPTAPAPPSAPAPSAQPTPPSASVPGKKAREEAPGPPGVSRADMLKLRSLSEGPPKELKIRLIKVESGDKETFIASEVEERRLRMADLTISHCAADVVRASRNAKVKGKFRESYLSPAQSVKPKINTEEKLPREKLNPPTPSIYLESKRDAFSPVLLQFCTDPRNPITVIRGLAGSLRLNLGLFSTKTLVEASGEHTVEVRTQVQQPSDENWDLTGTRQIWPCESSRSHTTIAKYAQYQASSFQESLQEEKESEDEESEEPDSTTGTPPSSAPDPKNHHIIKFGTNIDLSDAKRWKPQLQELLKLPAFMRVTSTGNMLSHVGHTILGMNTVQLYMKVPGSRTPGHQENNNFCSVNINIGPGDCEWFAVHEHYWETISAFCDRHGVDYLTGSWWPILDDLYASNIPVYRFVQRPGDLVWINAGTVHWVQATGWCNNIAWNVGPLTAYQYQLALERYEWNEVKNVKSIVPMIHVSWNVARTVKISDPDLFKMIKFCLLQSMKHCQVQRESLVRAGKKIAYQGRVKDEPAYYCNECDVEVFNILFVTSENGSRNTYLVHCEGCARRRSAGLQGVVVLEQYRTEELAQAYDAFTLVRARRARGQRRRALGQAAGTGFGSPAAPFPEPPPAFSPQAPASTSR
Nature of the assay: Histone lysine demethylase immunofluorescence assay, U2OS cells transfected with KDM6B. Particulars: U2OS cells transfected with pCMVHA KDM6B; mark detected H3K27me2; 20 hours. How it is done: as §1

Regarding `CC(C)C[C@H](NCc1cc(/C=N/CCO)ccn1)C(=O)N1CCCCC1` [Compound 95, (2S)-2-[({4-[[(2-hydroxyethyl)imino]-methyl]pyridin-2-yl}methyl)amino]-4-methyl-1-(piperidin-1-yl)pentan-1-one], the IC50 on KDM2A is more than 2500 nM.

The compound `CN(C)C/C=C/CNCc1cc(C=O)ccn1` [Compound 98, 2-({[(2E)-4-(dimethylamino)but-2-en-1-yl]amino}-methyl)pyridine-4-carbaldehyde] yielded an IC50 on KDM4A of less than 250 nM.

Take `O=Cc1ccnc(CNCC(=O)N2CCC[C@@H]2CN2CCCC2)c1` [Compound 102, 2-[({2-oxo-2-[(2R)-2-(pyrrolidin-1-ylmethyl)pyrrolidin-1-yl]ethyl}amino)-methyl]pyridine-4-carbaldehyde]: the IC50 at KDM4A lay within 250 to 2500 nM.

Compound `CN(C)CCNCc1ccnc(CNCC(=O)N(C)C)c1` [Compound 15, 2-({[4-({[2-(dimethylamino)ethyl]-amino}methyl)pyridin-2-yl]methyl}amino)-N,N-dimethylacetamide] returned an IC50 against KDM4A of more than 2500 nM.

Turning to `CNC(C#N)c1ccnc(CNCCCN(C)C)c1` (stereo not drawn) [Compound 24, 2-[2-({[3-(dimethylamino)propyl]-amino}methyl)pyridin-4-yl]-2-(methylamino)-acetonitrile], at KDM6B, the IC50 was more than 2500 nM.

At KDM4A, `CCN(CC)CCCCNCc1cc(/C=N/CCOC)ccn1` [Compound 60, [4-(diethylamino)butyl]-({4-[[(2-methoxyethyl)imino]-methyl]pyridin-2-yl}methyl)amine] gave an IC50 of 250 to 2500 nM.

Turning to `CCN(CCN(C)C)C(=O)CNCc1cc(C2OCC(Cc3ccccc3)CN2C(=O)C(F)(F)F)ccn1` (stereo not drawn) [Compound 90, 2-[({4-[5-benzyl-3-(trifluoroacetyl)-1,3-oxazinan-2-yl]pyridin-2-yl}methyl)amino]-N-[2-(dimethylamino)-ethyl]-N-ethylacetamide], the IC50 on KDM6B is more than 2500 nM; against KDM4A, less than 250 nM.

`CN(C)C(=O)CNCc1cc(/C=N/CCC2CCCCC2)ccn1` [Compound 36, 2-[({4-[[(2-cyclohexylethyl)imino]-methyl]pyridin-2-yl}methyl)amino]-N,N-dimethylacetamide] displayed an IC50 at KDM4A of more than 2500 nM.

Regarding `O=C(CNCc1cc(/C=N/C2CC2)ccn1)NC1CCN(Cc2ccccc2)C1` (stereo not drawn) [Compound 53, N-(1-benzylpyrrolidin-3-yl)-2-[({4-[N-cyclopropyl-carboximidoyl]pyridin-2-yl}methyl)amino]-acetamide], on KDM4A, the IC50 was more than 2500 nM.

`OCC/N=C/c1ccnc(CNCCc2ccccc2OCc2ccccc2)c1` [Compound 93, 2-[({2-[({2-[2-(benzyloxy)phenyl]-ethyl}amino)methyl]-pyridin-4-yl}methylidene)-amino]ethan-1-ol] returned an IC50 against KDM2A of more than 2500 nM.

In turn, `CN(C)C(=O)CNCc1cc(CNCC#N)ccn1` [Compound 13, 2-{[(4-{[(cyanomethyl)amino]-methyl}pyridin-2-yl)methyl]amino}-N,N-dimethylacetamide] yielded an IC50 against KDM4A of 250 to 2500 nM.

As to `CCN(CC)CCCCNCc1cc(C=O)ccn1` [Compound 107, 2-({[4-(diethylamino)-butyl]amino}-methyl)pyridine-4-carbaldehyde], at KDM6B, the IC50 is more than 2500 nM.

In the case of `CN(Cc1ccccc1F)C(=O)CNCc1cc(/C=N/CCO)ccn1` [Compound 92, N-[(2-fluorophenyl)methyl]-2-[({4-[[(2-hydroxyethyl)imino]-methyl]pyridin-2-yl}methyl)amino]-N-methylacetamide], the IC50 against KDM2A is more than 2500 nM.

`O=Cc1ccnc(CNCCCN2CCCC2)c1` [Compound 111, 2-({[3-(pyrrolidin-1-yl)propyl]amino}-methyl)pyridine-4-carbaldehyde] gave an IC50 against KDM4A of more than 2500 nM.

Regarding `C(=N/C1CC1)/c1ccnc(CNCCCN2CCCC2)c1` [Compound 42, N-{[2-({[3-(pyrrolidin-1-yl)propyl]amino}-methyl)pyridin-4-yl]methylidene}-cyclopropanamine], the concentration for half-maximal inhibition (IC50) against KDM6B and on KDM4A was more than 2500 nM each time.

For the compound `COc1ccccc1CN1CCC(NC(=O)CNCc2cc(CN)ccn2)CC1` [Compound 9, 2-({[4-(aminomethyl)pyridin-2-yl]methyl}amino)-N-{1-[(2-methoxyphenyl)methyl]-piperidin-4-yl}acetamide], at KDM4A, the IC50 was more than 2500 nM.

Compound `CN(C)CC1CCC(CNCc2cc(/C=N/C3CC3)ccn2)CC1` (stereo not drawn) [Compound 46, N-[(2-{[({4-[(dimethylamino)-methyl]cyclohexyl}-methyl)amino]-methyl}pyridin-4-yl)methylidene]-cyclopropanamine] yielded an IC50 at KDM4A of less than 250 nM.

In turn, `CN(CCCNCc1cc(/C=N/C2CC2)ccn1)Cc1ccccc1` [Compound 41, N-({2-[({3-[benzyl(methyl)amino]-propyl}amino)methyl]-pyridin-4-yl}methylidene)-cyclopropanamine] had an IC50 against KDM4A of more than 2500 nM.

As to `CCN(CCN(C)C)C(=O)CNCc1cc(C=O)ccn1` [Compound 101], the results for the IC50 against KDM6B and against KDM4A were more than 2500 nM and 250 to 2500 nM, respectively.

For `CN(CC(=O)N1CCCCC1)Cc1cc(C=O)ccn1` [Compound 120, 2-({methyl[2-oxo-2-(piperidin-1-yl)ethyl]amino}-methyl)pyridine-4-carbaldehyde], on KDM2A, the IC50 is more than 2500 nM.

`CCN(CCN(C)C)C(=O)CNCc1cc(CN)ccn1` [Compound 4, 2-({[4-(aminomethyl)pyridin-2-yl]methyl}amino)-N-[2-(dimethylamino)ethyl]-N-ethylacetamide]: the IC50 against KDM6B is more than 2500 nM.

Source of the values: patent publication US9650339B2, “Inhibitors of histone demethylases” (Gilead Sciences, Inc., priority 2013, dated 2017).
